Measurements: patent EP2550959A1 (priority 2011, dated 2013)
Like-named read-outs stand apart in the source and are kept apart here.

Assays:
[1] = tested on: monocrotalin-induzierten Lungenhochdruck; assay: Monocrotaline-induced pulmonary hypertension in the rat; format: in vivo, Sprague-Dawley Ratten; details: days 15-28, mean ± SEM (N=6)
Excerpt: Monocrotalin (MCT) ist ein Toxin aus Pflanzen der Spezies Crotalaria, welches nach einer einzigen Injektion in Ratten die Endothelzellen der pulmonalen Arterien schädigt mit folgender Hypertrophie der glatten Gefässmuskulatur und persistierendem schwerem pulmonalem Hochdruck. Die MCTinduzierte pulmonale Hypertension der Ratte ist ein gut etabliertes und validiertes Modell der humanen pulmonalen Hypertension und alle heute zugelassenen Therapeutika haben eine Wirkung in diesem Modell gezeigt, zumindest wenn sie vor dem toxisch bedingten Gewebeumbau angewendet wurden.
MCT (60mg/kg) wurde bei männlichen Sprague-Dawley Ratten als Einzelinjektion subkutan verabreicht und ein gleiches Volumen isotonischer Kochsalzlösung bei den Kontrolltieren injiziert. […] Dabei wurde die genannte Dosis der jeweiligen Testsubstanz morgens und abends in einem Volumen von je 2.0 ml an Gruppen von jeweils 6 Tieren gegeben, die an Tag 1 des Experiments mit MCT behandelt worden waren. Die gleiche Menge Wasser wurde den Kontrolltieren zugeführt.
Am Tag 28 des Experiments, zwei Stunden nach letztmaliger Substanzgabe, wurden die Tiere narkotisiert unter Verwendung von Pentobarbital. Eine Tracheotomie wurde durchgeführt und die Tiere unter Isofluran-Anästhesie beatmet. Der mittlere arterielle Systemdruck und der systolische Druck im rechten Herzventrikel wurden gemessen. Nach den Druckmessungen wurden die Tiere mit physiologischer Kochsalzlösung perfundiert und die rechte Lunge wurde zur Bestimmung des Kollagengehalts entfernt.
Die sc-Injektion von MCT, wie oben beschrieben, führt zu einer schweren Schädigung des pulmonalen Gefässendothels sowie überschießender Produktion von Bindegewebe und Entwicklung einer pulmonalen Hypertonie. Anhäufung von Kollagen, gemessen als Hydroxyprolin-Gehalt des Lungengewebes, und Anstieg des rechtsventrikulären systolischen Drucks reflektieren die beschriebenen strukturellen und funktionalen Veränderungen. Die möglichen therapeutischen und präventiven Effekte von Lisurid bzw. Tergurid wurden in dem vorgestellten Modell der pulmonalen Hypertension gemessen. […]

5-HT-induzierte Effekte = details: 2007], cited from earlier work
[2] = Antioxidative effect / uptake of oxygen radicals; format: physicochemical; details: per single molecule
Excerpt: Die massenspektroskopisch in der Mehrheit nachweisbaren Reaktionsprodukte enthalten 2 Sauerstoffatome; es lassen sich aber auch Verbindungen mit 3, 4 und 5 Sauerstoff-Atomen nachweisen.
Ein typisches Charakteristikum von Massenspektra ist, dass Gipfel von [M+H]++18, d. h. Zusatz von Wasser, oder [M+H]++16, d.h. Zusatz eines Sauerstoffatoms, gefunden werden, wie auch Kombinationen von Wasser und Sauerstoffatomen. Wegen der niedrigen in den Entnahmeproben enthaltenen Substanzmengen und der Kurzlebigkeit der Reaktionsprodukte war deren Isolierung zur Strukturaufklärung nicht möglich. Das Lisuridmolekül weist mehrere Positionen auf, an denen Wasser und/oder ein Sauerstoffatom gebunden werden können (Fig. 4).

[3] = biological target: 5-HT2A Rezeptoren von Schweineherzkranzarterien (Sus scrofa, UniProt P50129); assay: Functional 5-HT2A receptor assay: 5-HT-induced contraction of pig coronary arteries; format: biochemical, Schwein
Sequence of 5-HT2A Rezeptoren von Schweineherzkranzarterien (P50129 whole entry): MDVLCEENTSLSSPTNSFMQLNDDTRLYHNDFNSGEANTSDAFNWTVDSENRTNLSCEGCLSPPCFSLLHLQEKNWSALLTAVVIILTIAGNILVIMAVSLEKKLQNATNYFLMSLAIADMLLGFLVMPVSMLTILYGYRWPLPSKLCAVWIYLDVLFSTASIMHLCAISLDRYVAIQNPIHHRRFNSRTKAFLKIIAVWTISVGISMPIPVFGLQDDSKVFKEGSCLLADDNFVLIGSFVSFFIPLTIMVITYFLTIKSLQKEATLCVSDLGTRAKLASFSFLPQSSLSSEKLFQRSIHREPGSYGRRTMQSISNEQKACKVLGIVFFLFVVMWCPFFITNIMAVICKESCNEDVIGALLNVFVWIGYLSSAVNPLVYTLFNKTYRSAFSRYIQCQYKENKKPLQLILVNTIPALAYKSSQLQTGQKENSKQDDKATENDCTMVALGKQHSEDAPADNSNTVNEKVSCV
Excerpt: (§1) Dabei bedeutet der pA2 -Wert den negativ dekadischen Logarithmus der Konzentration eines Antagonisten, die es erforderlich macht, die Agonisten-Konzentration zu verdoppeln, um den Ausgangseffekt des Agonisten ohne Antagonisten wiederherzustellen.

[4] = tested on: Menschliche glatte Muskelzellen mesenterialen Ursprungs; assay: 5-HT-stimulated proliferation of human smooth muscle cells (3H-thymidine uptake); format: cell-based; details: 10 µmol/l test substance, growth stimulated with 10-8 mol/l 5-HT; Fig. 2
Excerpt: Menschliche glatte Muskelzellen mesenterialen Ursprungs (Promo Cell) wurden entsprechend den Empfehlungen des Herstellers bis zur Bildung geschlossener Monolayers in 6 Platten mit PromoCell-Kulturmedium vermehrt und dann im gleichen Medium auf 24-Vertiefungsträgern für eine Zellzahl von 5x104 Zellen/Ansatz ausgesät. […] Zur Bestimmung des Zellwachstums wurde dann 3H-Thymidin (Amersham) zu den Zellkulturen hinzugegeben und diese für 24 Stunden inkubiert. Nach der Adhäsion der Zellen wurde das Kulturmedium durch ein Standardmedium mit 0.2% fetalem Kalbsserum zum Wachstumsstopp ersetzt und erneut 48 Stunden lang inkubiert.
Um antiproliferative Wirkungen der beschriebenen Substanzen zu testen, wurden die Zellkulturen dann zunächst mit einer Konzentration von 10 µmol/l der Prüfsubstanzen präinkubiert. […] Zur Messung des Wachstums der Zellen wurde dann 3H-Thymidin (Amersham) den Kulturen zugefügt und diese für 24 Stunden inkubiert. Danach erfolgten 2 Inkubationen in eisgekühlter Kochsalzlösung mit einem Phosphat-Puffer und danach 30 min Inkubation in eisgekühlter 10%iger Trichlor-Essigsäure bei 4°C. Die Zellen wurden dann in 0.1 molarer NaOH-Lösung inkubiert (0.5 ml/Inkubationsgefäss). Nach Neutralisierung mit Essigsäure wurde die 3H -Thymidin-Aufnahme mit Flüssig-Szintillation gemessen (als Dreifach-Bestimmung).

[5] = biological target: T1, 5-HT2B Rezeptoren von Schweinelungenarterien (Sus scrofa, UniProt F1SMV8); details: footnote d: from Glusa and Pertz, Brit. J. Pharmacol. 130, 692-698, 2000; cited from earlier work
T1 sequence (F1SMV8 1-481): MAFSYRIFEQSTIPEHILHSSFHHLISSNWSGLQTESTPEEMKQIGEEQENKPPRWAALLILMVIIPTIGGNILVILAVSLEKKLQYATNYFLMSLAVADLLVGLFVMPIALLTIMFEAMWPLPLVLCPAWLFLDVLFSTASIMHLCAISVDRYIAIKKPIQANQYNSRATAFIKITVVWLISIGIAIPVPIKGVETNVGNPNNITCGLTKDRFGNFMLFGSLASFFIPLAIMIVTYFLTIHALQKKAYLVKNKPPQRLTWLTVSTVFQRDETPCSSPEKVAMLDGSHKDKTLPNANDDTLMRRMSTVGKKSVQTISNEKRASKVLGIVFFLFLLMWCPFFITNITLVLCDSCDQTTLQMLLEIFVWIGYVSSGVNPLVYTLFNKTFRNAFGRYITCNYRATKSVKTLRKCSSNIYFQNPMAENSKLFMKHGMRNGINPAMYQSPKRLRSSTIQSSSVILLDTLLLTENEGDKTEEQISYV

[6] = biological target: T1, 5-HT2B Rezeptoren von Schweinelungenarterien; assay: Functional 5-HT2B receptor assay: 5-HT-induced relaxation of PGF2α-precontracted pig pulmonary arteries; format: biochemical, Schwein; details: conditions as in Beispiel 1
Excerpt: as §1
Die vaskuläre Reaktion in Präparationen der Pulmonalarterien des Schweins, die mittels PGF2α vorkontrahiert waren, wurden als Assay für die spezifische Interaktion mit 5-HT2B-Rezeptoren verwendet (siehe Fig. 1A).

[7] = Stability of lisuride dissolved in water (HPLC); details: room temperature, HPLC (Fig. 3A)

CCN(CC)C(=O)N[C@H]1C[C@@H]2c3cccc4[nH]cc(c34)C[C@H]2N(C)C1 [Tergurid, trans-Dihydrolisurid] gave an RVPsys ([1]; Monocrotaline (60 mg/kg s.c.) + 2.5 mg/kg bid by gavage) of 39 ± 3 mmHG, an SAP ([1]; Monocrotaline + 2.5 mg/kg bid, systemic arterial pressure) of 111 ± 7 mmHG and a Hydroxyproline ([1]; lung, Monocrotaline + 2.5 mg/kg bid) of 2.7 ± 1.2 ug/g protein. The “5-HT-induzierter Gewichtsanstieg von Herz und Leber” value (5-HT-induzierte Effekte; rat [Hauso O et al.) was “verhinderte”, the “Verhaltensabnormalitäten und fibrotische Hautveränderungen an den Injektionsorten von 5-HT” value (5-HT-induzierte Effekte; rat [Hauso O et al.) was “unterdrückte” and the “pulmonale Klappeninsuffizienz” value (5-HT-induzierte Effekte; rat, daily 5-HT over 4 months [Hauso O et al.) was “nicht nachweisbar”. The “freie Sauerstoffradikale, die ein Molekül aufnehmen kann” value [2] was at most 4, the IC50 [3] was 0.372 nM and the “Zellproliferation (3H -Thymidin-Aufnahme)” value [4] was “Reduktion der Zellproliferation”.

In the case of Cc1cc(NC(=O)Nc2ccc3c(ccn3C)c2)sn1 [SB204741], the “5-HT2B pA2” value [5] is listed as 6.59 ± 0.20^d.

With CCN(CC)C(=O)NC1CNC2Cc3c[nH]c4cccc(c34)C2C1 (stereo not drawn) [6-Nortergurid] the “5-HT2B pA2” value [6] was 7.11 ± 0.08 and the Kb [3] was 14.1 nM.

In the case of CCN(CC)C(=O)N[C@H]1C=C2c3cccc4[nH]cc(c34)C[C@H]2N(C)C1 [Lisurid, 3-(9,10-didehydro-6-methylergoline-8alpha-yl)-1,1-diethylurea], the “Abbau von gelöstem Lisurid in Wasser” value [7] is reported as “schnell zu Produkten abgebaut” and the “freie Sauerstoffradikale, die ein Molekül aufnehmen kann” value [2] is reported as at most 6.

With CCNC(=O)NC1C=C2c3cccc4[nH]cc(c34)CC2N(C)C1 (stereo not drawn) [N"-Monodesethyllisurid] the “5-HT2B pA2” value [6] was 8.08 ± 0.05 and the Kb [3] was 5.13 nM.

For CCN(CC)C(=O)NC1CC2c3cccc4[nH]cc(c34)CC2N(C)C1 (stereo not drawn) [8β-Tergurid], the “5-HT2B pA2” value [6] was 8.39 ± 0.09 and the Kb [3] was 5.13 nM.

For Oxtergurid, the “5-HT2B pA2” value [6] was 6.42 ± 0.20 and the “5-HT2A pA2” value ([3]; pig coronary arteries, conditions as in Beispiel 1) was 6.99 ± 0.04.

For CCN(CC)C(=O)NC1C=C2c3cccc4[nH]cc(c34)CC2NC1 (stereo not drawn) [6-Norlisurid], the “5-HT2B pA2” value [6] was 8.39 ± 0.12 and the Kb [3] was 1.45 nM.

With CCNC(=O)NC1CC2c3cccc4[nH]cc(c34)CC2N(C)C1 (stereo not drawn) [N"-Monodesethyltergurid] the “5-HT2B pA2” value [6] was 7.30 ± 0.02 and the Kb [3] was 15.1 nM.
